Results reported in US20230331780A1, “COMPOSITIONS AND METHODS FOR THE TREATMENT OF ALZHEIMER'S DISEASE” (The Trustees of Columbia University in the City of New York, priority 2020, published 2023).

Assays:
CD45 phosphatase = target: T1, CD45 phosphatase (Homo sapiens, UniProt P08575); experiment: CD45 phosphatase activity in THP1 cells; assay type: cell-based; settings: peptide added to THP1 cells; FIG. 2
T1 construct: endogenous in cells; host or cells: THP1 cells
T1 sequence (P08575 26-1306): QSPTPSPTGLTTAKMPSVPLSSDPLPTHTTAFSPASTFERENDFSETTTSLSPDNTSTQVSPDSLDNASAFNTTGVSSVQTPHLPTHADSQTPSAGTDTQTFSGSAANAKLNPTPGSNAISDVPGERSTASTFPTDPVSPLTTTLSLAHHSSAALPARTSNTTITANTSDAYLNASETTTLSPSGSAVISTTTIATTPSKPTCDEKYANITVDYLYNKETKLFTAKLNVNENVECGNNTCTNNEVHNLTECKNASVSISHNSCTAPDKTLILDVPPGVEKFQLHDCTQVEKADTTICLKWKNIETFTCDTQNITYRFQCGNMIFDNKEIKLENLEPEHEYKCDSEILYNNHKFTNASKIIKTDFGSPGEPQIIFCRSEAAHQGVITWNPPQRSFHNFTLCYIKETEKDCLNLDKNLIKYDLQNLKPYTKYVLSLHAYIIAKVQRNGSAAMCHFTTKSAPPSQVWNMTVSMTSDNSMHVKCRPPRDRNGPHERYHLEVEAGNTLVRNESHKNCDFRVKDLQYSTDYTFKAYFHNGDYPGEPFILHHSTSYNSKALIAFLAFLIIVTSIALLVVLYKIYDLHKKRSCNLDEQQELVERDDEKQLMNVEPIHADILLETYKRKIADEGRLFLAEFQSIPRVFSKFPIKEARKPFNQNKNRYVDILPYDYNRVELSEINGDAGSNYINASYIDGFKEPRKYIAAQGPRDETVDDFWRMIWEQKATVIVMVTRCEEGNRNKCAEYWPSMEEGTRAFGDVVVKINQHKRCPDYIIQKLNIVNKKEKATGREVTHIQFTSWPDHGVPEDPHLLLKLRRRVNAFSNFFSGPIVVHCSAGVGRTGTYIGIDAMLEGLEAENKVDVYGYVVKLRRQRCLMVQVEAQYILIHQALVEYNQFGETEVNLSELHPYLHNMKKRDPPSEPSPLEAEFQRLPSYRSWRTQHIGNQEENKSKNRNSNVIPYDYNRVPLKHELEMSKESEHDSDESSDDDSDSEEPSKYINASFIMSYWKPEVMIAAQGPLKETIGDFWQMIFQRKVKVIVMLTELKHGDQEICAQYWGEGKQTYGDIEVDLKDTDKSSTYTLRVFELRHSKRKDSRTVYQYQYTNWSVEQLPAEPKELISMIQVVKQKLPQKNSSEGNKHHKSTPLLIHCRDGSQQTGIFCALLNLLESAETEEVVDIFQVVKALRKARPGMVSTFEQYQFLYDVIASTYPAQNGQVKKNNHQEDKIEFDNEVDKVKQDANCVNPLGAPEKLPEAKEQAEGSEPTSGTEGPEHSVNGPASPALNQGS

[1] = tested on: endogenous Amyloid-beta 1-42 in 5×FAD mice; experiment: endogenous amyloid-beta 1-42 in brains of 5×FAD mice; assay type: in vivo, mouse; settings: ICV via osmotic mini pump, 28 days, versus vehicle, FIG. 5A/5B
Excerpt: Fourth, by leveraging a second in vivo model of microglia-mediated amyloid uptake in the mouse brain, and using osmotic mini pumps implanted subcutaneously to deliver the peptide through a catheter connected to the brain ventricles, it was shown that the inhibitory peptide SEQ ID NO:1 (peptide #1) reduces the amount of endogenous amyloid-beta 1-42 detectable in the brains of 5×FAD animals (FIG. 5A and FIG. 5B). 5×FAD mice express human APP and PSEN1 transgenes that include five AD-linked mutations. These mice recapitulate many AD-related phenotypes and have a relatively early and aggressive presentation. Amyloid plaques, accompanied by gliosis, are seen in mice as young as two months of age. Neuron loss occurs in multiple brain regions, beginning at about 6 months in the areas with the most pronounced amyloidosis. Mice display a range of cognitive and motor deficits.
Peptide was directly administered to the brain via a mini osmotic pump implanted subcutaneously and connected to the brain ventricles through a catheter for continuous drug delivery. By the end of the treatment (28 days), brain sections were generated and analyzed by confocal microscope. A representative image from an animal in each of the three groups is shown (FIG. 5A). Quantification of E610 immunoreactivity in the hippocampus, reflective Amyloid-beta 1-42 levels, from the three mouse groups is shown.

[2] = tested on: exogenous Amyloid-beta 1-42 in mouse brain; experiment: exogenous amyloid-beta 1-42 clearance in mouse brain, peptide delivered to brain ventricles by osmotic mini pump; assay type: in vivo; settings: ICV via osmotic mini pump, 10 uM solution, approx. 3 ug/kg daily, 28 days, Amyloid-beta 647, confocal microscopy, FIG. 3A/3B
Protocol: Third, by leveraging an in vivo model of microglia-mediated amyloid uptake in the mouse brain, and using osmotic mini pumps implanted subcutaneously to deliver the peptide through a catheter connected to the brain ventricles, it was shown that the inhibitory peptide SEQ ID NO:1 (peptide #1) reduces the amount of exogenous amyloid-beta 1-42 detectable in the brains of animals (FIG. 3A and FIG. 3B). 10 uM peptide solutions, containing SEQ ID NO: 1 (peptide #1) or SEQ ID NO: 2 (peptide #4), were added to osmotic mini pumps to permit daily delivery of approximately 5 ul of dosing solution or 3 ug/kg of peptide. A fluorescently labelled analog of amyloid beta 1-42 (Amyloid-beta 647) was delivered via ICV infusion. Confocal microscopy was later used to quantify signal in hippocampal sections. […] By the end of the treatment (28 days), brain sections were performed and analyzed by confocal microscope.
Hippocampus areas are shown of the three treated mice (FIG. 3A). Quantification of Amyloid-beta 1-42 in the hippocampus from the three mouse groups are shown with a marked decrease of Amyloid-beta 1-42 in mice that received Peptide #1 but not those that were treated with Peptide #4 (FIG. 3B). […] By the end of the treatment (28 days), brain sections were analyzed by confocal microscope.

[3] = tested on: NeuN positive neurons in Layer 5 of the piriform cortex; experiment: neuronal survival in 5×FAD mice given exogenous Amyloid-beta 1-42; assay type: in vivo, mouse; settings: 5×FAD mice treated with exogenous Amyloid-beta 1-42; ICV via osmotic mini pump, 28 days; FIG. 6
Excerpt: Fifth, in a modified version of this second in vivo model of Alzheimer's Disease, and using osmotic mini pumps implanted subcutaneously to deliver the peptide through a catheter connected to the brain ventricles, it was shown that the inhibitory peptide SEQ ID NO:1 (peptide #1) reduces neuronal loss in transgenic 5×FAD animals treated with exogenous Amyloid-beta 1-42 (FIG. 6). […] Peptide was directly administered to the brain via a mini osmotic pump implanted subcutaneously and connected to the brain ventricles through a catheter for continuous drug delivery. By the end of the treatment (28 days), brain sections were generated and analyzed by confocal microscope. Quantification of NeuN immunoreactivity in Layer 5 of the piriform cortex, reflective of neuronal number, from the three mouse groups is shown.

[4] = target: T2, interaction between CD33 and CD45 (Homo sapiens, UniProt P08575); experiment: proximity ligation assay of CD33-CD45 interaction in THP1 cells; assay type: cell-based; settings: human myeloid cell line THP1; peptide 0-0.1 mM; FIG. 1
T2 construct: in the human myeloid cell line THP1 using the proximity ligation assay; endogenous in cells; host or cells: THP1 (human myeloid cell line)
T2 sequence (P08575 26-1306): T1 sequence (P08575 26-1306)
Excerpt: To test if the binding interaction between CD33 and any of its ligands is involved in AD pathogenesis, a 12-mer peptide (RMESKTEKWMER; SEQ ID NO: 1) was designed based on the structure of the sialic-acid binding domain of siglecs (Sialic acid-binding immunoglobulin-type lectins).

[5] = tested on: exogenous Amyloid-beta 1-42 in mouse brain; experiment: exogenous amyloid-beta 1-42 clearance in mouse brain, peptide delivered subcutaneously; assay type: in vivo; settings: peptide subcutaneous via pump, A-beta ICV, 28 days, confocal microscopy, FIG. 4
Protocol: Hippocampus areas are shown of the three treated mice (FIG. 3A). Quantification of Amyloid-beta 1-42 in the hippocampus from the three mouse groups are shown with a marked decrease of Amyloid-beta 1-42 in mice that received Peptide #1 but not those that were treated with Peptide #4 (FIG. 3B). […] The fluorescent labelled A-beta (red) was directly administered to the brain via a mini osmotic pump implanted subcutaneously and connected to the brain ventricles through a catheter for continuous drug delivery. The peptide (SEQ ID NO: 1) was delivered subcutaneously via another pump. By the end of the treatment (28 days), brain sections were analyzed by confocal microscope.

Q: How did the CD45 phosphatase activity (CD45 phosphatase) turn out when “MESKTEKWMERI [SEQ ID NO: 2, reference compound]” was run?
A: Its CD45 phosphatase activity is “does not”.

Q: RMESKTEKWMER [SEQ ID NO: 1] was tested. Which “amount of endogenous Amyloid-beta 1-42 (E610 immunoreactivity in hippocampus)” value [1] did it give?
A: The value was “decreases the amount of endogenous Amyloid-beta 1-42 in vivo”.

Q: And the CD45 phosphatase activity (CD45 phosphatase)?
A: Its CD45 phosphatase activity is “leads to an increase in CD45 phosphatase activity”.

Q: What about the “amount of exogenous Amyloid-beta 1-42 in hippocampus” value [2] of the same sequence?
A: The value was “decreases the amount of exogenous Amyloid-beta 1-42 in vivo”.

Q: What about the “neuronal survival (NeuN immunoreactivity in Layer 5 of the piriform cortex)” value [3] of the same sequence?
A: Its value is “increased neuronal survival in vivo”.

Q: And the “interaction between CD33 and CD45 (proximity ligation assay)” value [4]?
A: Its value is “reduces the interaction between CD33 and CD45”.

Q: And the “amount of exogenous Amyloid-beta 1-42 in brain parenchyma” value [5]?
A: Its value is “decreases the amount of exogenous Amyloid-beta 1-42 in brain”.
